According to ChEMBL document CHEMBL1201862, “PubChem BioAssay data set” (2004):
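Five concentrations, 48 hours, 96-well plates. At the GI50, growth is halved.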 Activity calls are given as the source filed them. Rule as the data show it: active = GI50 up to about 1.1 µM and inactive = higher.

Key:
Assay in all cases: growth of human tumour cells (NCI), 48 h
[1] = test system: HT-29
[2] = test system: TK-10
[3] = test system: KM12
[4] = test system: OVCAR-8
[5] = test system: SN12C
[6] = test system: UO-31
[7] = test system: HCT-15
[8] = test system: MCF7
[9] = test system: HL-60
[10] = test system: OVCAR-3
[11] = test system: SF-539
[12] = test system: UACC-257
[13] = test system: SNB-19
[14] = test system: K562
[15] = test system: SW-620
[16] = test system: CCRF-CEM
[17] = test system: HCT-116
[18] = test system: A549
[19] = test system: A498
[20] = test system: EKVX
[21] = test system: NCI-H226
[22] = test system: MDA-N
[23] = test system: SK-MEL-28
[24] = test system: OVCAR-4
[25] = test system: RPMI-8226
[26] = test system: SK-OV-3
[27] = test system: OVCAR-5
[28] = test system: SF-268
[29] = test system: ACHN
[30] = test system: M14
[31] = test system: HOP-62
[32] = test system: RXF 393
[33] = test system: MOLT-4
[34] = test system: IGROV-1
[35] = test system: SK-MEL-5
[36] = test system: MDA-MB-231
[37] = test system: COLO 205
[38] = test system: 786-0
[39] = test system: SR
[40] = test system: SNB-75
[41] = test system: NCI-H460
[42] = test system: HOP-92
[43] = test system: NCI-H23
[44] = test system: PC-3
[45] = test system: CAKI-1
[46] = test system: Malme-3M
[47] = test system: NCI/ADR-RES
[48] = test system: BT-549
[49] = test system: HCC 2998
[50] = test system: LOX IMVI
[51] = test system: SF-295
[52] = test system: UACC-62
[53] = test system: DU-145
[54] = test system: NCI-H522
[55] = test system: U-251
[56] = test system: Hs-578T
[57] = test system: SK-MEL-2
[58] = test system: MDA-MB-435
[59] = test system: T47D

C=CCOC(=O)/C(=C\c1ccc(OC)c(OC)c1)c1ccc(OC)c(OC)c1
GI50 [1]: 28100 nM (inactive)
GI50 [2]: 61200 nM (inactive)
GI50 [3]: 42400 nM (inactive)
GI50 [4]: > 100000 nM (inactive)
GI50 [5]: > 100000 nM (inactive)
GI50 [6]: 20700 nM (inactive)
GI50 [7]: > 100000 nM
GI50 [8]: 47200 nM (inactive)
GI50 [9]: 15500 nM (inactive)
GI50 [10]: > 100000 nM (inactive)
GI50 [11]: > 100000 nM (inactive)
GI50 [12]: 57500 nM (inactive)
GI50 [13]: 59000 nM (inactive)
GI50 [14]: 57800 nM (inactive)
GI50 [15]: 54100 nM (inactive)
GI50 [16]: 30800 nM (inactive)
GI50 [17]: 25200 nM (inactive)
GI50 [18]: 61700 nM (inactive)
GI50 [19]: 78700 nM (inactive)
GI50 [20]: 88500 nM (inactive)
GI50 [21]: > 100000 nM (inactive)
GI50 [22]: 60700 nM (inactive)
GI50 [23]: 33100 nM (inactive)
GI50 [24]: > 10000 nM (inactive)
GI50 [25]: 13400 nM (inactive)
GI50 [26]: > 100000 nM (inactive)
GI50 [27]: > 100000 nM (inactive)
GI50 [28]: 52700 nM (inactive)
GI50 [29]: 56200 nM (inactive)
GI50 [30]: > 100000 nM (inactive)
GI50 [31]: > 100000 nM (inactive)
GI50 [32]: 27900 nM (inactive)
GI50 [33]: 15600 nM (inactive)
GI50 [34]: > 100000 nM (inactive)
GI50 [35]: 42300 nM (inactive)
GI50 [36]: > 100000 nM (inactive)
GI50 [37]: 27500 nM (inactive)
GI50 [38]: 71300 nM (inactive)
GI50 [39]: 22000 nM (inactive)
GI50 [40]: 1660 nM (inactive)
GI50 [41]: 25400 nM (inactive)
GI50 [42]: 21800 nM (inactive)
GI50 [43]: 39200 nM (inactive)
GI50 [44]: 33100 nM (inactive)
GI50 [45]: 62200 nM (inactive)
GI50 [46]: 91600 nM (inactive)
GI50 [47]: 40600 nM (inactive)
GI50 [48]: > 100000 nM (inactive)
GI50 [49]: > 100000 nM (inactive)
GI50 [50]: > 10000 nM (inactive)
GI50 [51]: 52100 nM (inactive)
GI50 [52]: 38500 nM (inactive)
GI50 [53]: > 100000 nM (inactive)
GI50 [54]: > 100000 nM (inactive)
GI50 [55]: 52400 nM (inactive)
GI50 [56]: 39100 nM (inactive)
GI50 [57]: 47900 nM (inactive)
GI50 [58]: 56000 nM (inactive)
GI50 [59]: 29800 nM (inactive)

CC(C)N(CCCNc1c2ccccc2nc2cccc([N+](=O)[O-])c12)C(C)C
GI50 [1]: < 10 nM (active)
GI50 [2]: < 20.5 nM (active)
GI50 [3]: < 18.8 nM (active)
GI50 [4]: < 16.7 nM (active)
GI50 [5]: < 16.5 nM (active)
GI50 [6]: < 22.4 nM (active)
GI50 [7]: 19.1 nM
GI50 [8]: 11.4 nM (active)
GI50 [9]: < 18 nM (active)
GI50 [10]: < 23 nM (active)
GI50 [11]: < 21.6 nM (active)
GI50 [12]: < 23.1 nM (active)
GI50 [13]: < 22.4 nM (active)
GI50 [14]: 19.5 nM (active)
GI50 [15]: < 10 nM (active)
GI50 [16]: < 17.3 nM (active)
GI50 [17]: < 10 nM (active)
GI50 [18]: < 10.4 nM (active)
GI50 [19]: 19.6 nM (active)
GI50 [20]: < 15 nM (active)
GI50 [21]: 48.1 nM (active)
GI50 [22]: 13.1 nM (active)
GI50 [23]: < 10 nM (active)
GI50 [24]: 24.6 nM (active)
GI50 [25]: < 10 nM (active)
GI50 [26]: < 32.6 nM (active)
GI50 [27]: < 19.1 nM (active)
GI50 [28]: < 22.4 nM (active)
GI50 [29]: < 12.6 nM (active)
GI50 [30]: 12.5 nM (active)
GI50 [31]: < 19.1 nM (active)
GI50 [32]: 15.3 nM (active)
GI50 [33]: < 13.4 nM (active)
GI50 [34]: < 38.5 nM (active)
GI50 [35]: < 10 nM (active)
GI50 [36]: < 10 nM (active)
GI50 [37]: 10.1 nM (active)
GI50 [38]: < 17.9 nM (active)
GI50 [39]: < 10 nM (active)
GI50 [40]: < 44 nM (active)
GI50 [41]: < 10 nM (active)
GI50 [42]: 14 nM (active)
GI50 [43]: < 10.8 nM (active)
GI50 [44]: < 20.3 nM (active)
GI50 [45]: < 41.8 nM (active)
GI50 [46]: < 21.4 nM (active)
GI50 [47]: 986 nM (active)
GI50 [48]: < 19.6 nM (active)
GI50 [49]: < 10 nM (active)
GI50 [50]: < 20.6 nM (active)
GI50 [51]: < 15.2 nM (active)
GI50 [52]: 35.8 nM (active)
GI50 [53]: < 10 nM (active)
GI50 [54]: 10.4 nM (active)
GI50 [55]: < 16.3 nM (active)
GI50 [56]: < 25.7 nM (active)
GI50 [57]: 47.3 nM (active)
GI50 [58]: < 12.5 nM (active)
GI50 [59]: < 26.9 nM (active)
